According to patent US20260109693A1, “BUTENOLIDE COMPOUNDS CONTAINING THIAZOLIDINONE STRUCTURE AS WELL AS PREPARATION METHOD THEREFOR AND USE THEREOF” (priority 2023, published 2026):
Values after ≈ are worked out from the molar mass of the structure shown.

What was measured:
[1] = test system: Pathogenic fungi of rice sheath blight; experiment: In vitro fungicidal activity, mycelial growth rate method; assay type: cell-based; details: 50 mg/L, PDA plate
[2] = test system: Pathogenic fungi of pepper phytophthora disease; experiment: as above; assay type: cell-based; details: 50 mg/L, PDA plate; for inhibition at 50 µg/mL: Phytophthora
[3] = test system: Pathogenic fungi of wheat scab; experiment: whole plant or invertebrate; assay type: cell-based; details: for inhibition rate, Pathogenic fungi of wheat scab: 50 mg/L, PDA plate, mycelial growth; for inhibition at 50 µg/mL: read-out: inhibition rate, Pathogenic fungi of wheat scab
[4] = test system: Pathogenic fungi of rice bakanae disease; experiment: In vitro fungicidal activity, mycelial growth rate method; assay type: cell-based; details: 50 mg/L, PDA plate
[5] = test system: Pathogenic fungi of rape sclerotinia; experiment: as above; assay type: cell-based; details: 50 mg/L, PDA plate; for inhibition at 50 µg/mL: Sclerotinia
[6] = test system: Pathogenic fungi of tomato gray mold; experiment: as above; assay type: cell-based; details: 50 mg/L, PDA plate
[7] = test system: Wheat scab pathogenic fungi; assay type: cell-based
[8] = test system: Rice bakanae pathogenic fungi; experiment: Precise toxicity testing, five concentration gradients of toxic PDA plates; assay type: cell-based
[9] = test system: Rape sclerotinia pathogenic fungi; experiment: as above; assay type: cell-based
corn rust disease = experiment: In vivo protective activity, live pot cultivation method; details: 400 mg/L, sprayed 24 hours before inoculation, potted plants
Method: (§1) The determination method was as follows: the live pot cultivation determination method was used, that is, the compound sample to be tested was dissolved in a small amount of solvent (the type of solvent was such as acetone, methanol, and DMF, and was selected according to its dissolving ability for the sample, with a volume ratio of solvent amount to spray amount equal to or less than 0.05), diluted with water containing 0.1% Tween 80, and prepared into a test solution with a required concentration. With a crop sprayer, the test solution was sprayed on a pathogen host plant (the host plant was a standard potted seedling cultivated in a greenhouse), and inoculation with the pathogen was performed after 24 hours. Based on the characteristics of the pathogen, plants that require temperature control and moisturizing cultivation were inoculated and placed in an artificial climate chamber for cultivation, and transferred to a greenhouse for cultivation after the pathogen infection was completed. […] The disease prevention efficacy of the compound was evaluated after the disease had fully developed (usually one week).
(§2) At a concentration of 400 mg/L, the in vivo protective activity determination results of some compounds are as follows: […]

wheat powdery mildew = experiment: as above; details: 400 mg/L, sprayed 24 hours before inoculation, potted plants
Method: as §1, §2

cucumber downy mildew = experiment: as above; details: 400 mg/L, sprayed 24 hours before inoculation, potted plants
Method: as §1, §2

5-(4-methyl-2-oxo-1-oxaspiro[4,5]-dec-3-en-3-ethylidene)-2-thio-4-thiazolidinone [Compound 3-1]
inhibition rate, Pathogenic fungi of rice sheath blight [1]: 45.2 ± 2.1%
inhibition rate, Pathogenic fungi of pepper phytophthora disease [2]: 59.7 ± 0.4%
inhibition rate, Pathogenic fungi of wheat scab [3]: 100.0 ± 0.0%
inhibition rate, Pathogenic fungi of rice bakanae disease [4]: 100.0 ± 0.0%
inhibition rate, Pathogenic fungi of rape sclerotinia [5]: 82.4 ± 1.7%
inhibition rate, Pathogenic fungi of tomato gray mold [6]: 62.4 ± 2.5%
EC50 [7]: 0.079 µg/mL
EC90 [7]: 4.97 µg/mL
EC50 [8]: 0.72 µg/mL
EC90 [8]: 5.04 µg/mL
EC50 ([9]; Rape sclerotinia): 2.02 µg/mL
EC90 ([9]; Rape sclerotinia): 9.81 µg/mL

5-(4-phenyl-2-oxo-1-oxaspiro[4,5]-dec-3-en-3-ethylidene)-2-thio-4-thiazolidinone [Compound 3-4]
inhibition rate, Pathogenic fungi of rice sheath blight [1]: 31.9 ± 5.6%
inhibition rate, Pathogenic fungi of pepper phytophthora disease [2]: 44.8 ± 0.3%
inhibition rate, Pathogenic fungi of wheat scab [3]: 27.7 ± 2.9%
inhibition rate, Pathogenic fungi of rice bakanae disease [4]: 15.8 ± 2.4%
inhibition rate, Pathogenic fungi of rape sclerotinia [5]: 68.3 ± 4.2%
inhibition rate, Pathogenic fungi of tomato gray mold [6]: 33.6 ± 1.7%

COC(=O)Nc1nc2ccccc2[nH]1 [Carbendazim]
inhibition at 50 µg/mL [1]: 100%
inhibition at 50 µg/mL [2]: 4.6 ± 1.2%
inhibition at 50 µg/mL [3]: 100%
inhibition at 50 µg/mL [4]: 87.5 ± 3.1%
inhibition at 50 µg/mL [5]: 72.5 ± 2.1%
inhibition at 50 µg/mL [6]: 5.4 ± 2.4%

CCCCNC1=NC(=O)C(=C(C)C2=C(c3ccccc3)C(C)(C)OC2=O)S1 [Compound I-3-5]
efficacy against corn rust disease (corn rust disease): 86%

CC(=C1SC(Nc2ccc(C(F)(F)F)cc2)=NC1=O)C1=C(c2ccc(Cl)cc2)C2(CCCCC2)OC1=O [Compound I-6-9]
efficacy against wheat powdery mildew (wheat powdery mildew): 88%

CCCCNC1=NC(=O)C(=C(C)C2=C(c3ccc(Br)cc3)C3(CCCCC3)OC2=O)S1 [Compound I-7-5]
efficacy against cucumber downy mildew (cucumber downy mildew): 95%

CSc1ccc(C2=C(C(C)=C3SC(Nc4ccccc4-c4ccc(Cl)cc4)=NC3=O)C(=O)OC23CCCCC3)cc1 [Compound I-10-17]
efficacy against corn rust disease (corn rust disease): 89%

CC(=C1SC(Nc2ccc(F)cc2-c2ccc(Cl)c(Cl)c2)=NC1=O)C1=C(c2ccc(C(F)(F)F)cc2)C2(CCCCC2)OC1=O [Compound I-12-15]
efficacy against cucumber downy mildew (cucumber downy mildew): 93%

CC(=C1SC(NCC(C)C)=NC1=O)C1=C(c2cccc(Cl)c2)C2(CCCCC2)OC1=O [Compound I-14-6]
efficacy against wheat powdery mildew (wheat powdery mildew): 85%

CC(=C1SC(Nc2ccccc2)=NC1=O)C1=C(c2cccc(C(F)(F)F)c2)C2(CCCCC2)OC1=O [Compound I-16-7]
efficacy against wheat powdery mildew (wheat powdery mildew): 81%

CCOC(=O)C(C#N)=C(N)c1ccccc1 [Phenamacril]
inhibition rate, Pathogenic fungi of rice sheath blight [1]: 11.5 ± 1.4%
inhibition rate, Pathogenic fungi of pepper phytophthora disease [2]: 8.1 ± 2.1%
inhibition rate, Pathogenic fungi of wheat scab [3]: 100.0 ± 0.0%
inhibition rate, Pathogenic fungi of rice bakanae disease [4]: 100.0 ± 0.0%
inhibition rate, Pathogenic fungi of rape sclerotinia [5]: 23.0 ± 1.3%
inhibition rate, Pathogenic fungi of tomato gray mold [6]: 13.1 ± 0.3%
EC50 [7]: 0.078 µg/mL (≈ 0.361 µM)
EC90 [7]: 5.60 µg/mL (≈ 25.9 µM)
EC50 [8]: 0.071 µg/mL (≈ 0.328 µM)
EC90 [8]: 0.54 µg/mL (≈ 2.5 µM)

Cc1nc(C(F)(F)F)c(C(=O)Nc2c(Br)cc(OC(F)(F)F)cc2Br)s1 [Thifluzamide]
inhibition at 50 µg/mL [1]: 90.1 ± 4.5%
inhibition at 50 µg/mL [2]: 15.1 ± 2.8%
inhibition at 50 µg/mL [3]: 13.4 ± 6.3%
inhibition at 50 µg/mL [4]: 5.8 ± 1.4%
inhibition at 50 µg/mL [5]: 83 ± 1.2%
inhibition at 50 µg/mL [6]: 28.2 ± 1.2%
EC50 ([9]; Sclerotinia): 1.53 µg/mL (≈ 2.9 µM)
EC90 ([9]; Sclerotinia): 16.3 µg/mL (≈ 30.8 µM)
